Results as given in the supplement of paper PMC8617591.

Tests used:
[1] = system: Mycobacterium tuberculosis Erdman (autoluminescent); assay: FIC90 (Loewe) at 90% inhibition (log2); higher = more antagonistic
Experimental: (§1)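 DiaMOND equipotent two-drug combination dose responses against autoluminescent M. tuberculosis Erdman in 8 in vitro models. Read-out is OD600, or luminescence for the intracellular and dormancy models, normalised to untreated wells. Hill-fit Einf, AUC25 and GRinf are potency metrics; FIC50 and FIC90 are Loewe-additivity fractional inhibitory concentrations, given as log2 (negative = synergy). Replicates are averaged.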

[2] = system: Mycobacterium tuberculosis Erdman (autoluminescent); assay: FIC50 (Loewe) at 50% inhibition (log2); higher = more antagonistic
Experimental: as §1

[3] = system: Mycobacterium tuberculosis Erdman (autoluminescent); assay: Einf, fitted maximum growth inhibition of combination (fraction); higher = stronger maximal inhibition
Experimental: as §1

[4] = system: Mycobacterium tuberculosis Erdman (autoluminescent); assay: AUC25, normalised area under dose response up to IC25 (fraction (0-1)); higher = more potent at low dose
Experimental: as §1

[5] = system: Mycobacterium tuberculosis Erdman (autoluminescent); assay: GRinf, maximum normalised growth rate inhibition (unitless (-1 to 1)); higher = less effect (negative = killing)
Experimental: as §1

COc1nc2ccc(Br)cc2cc1[C@@H](c1ccccc1)[C@@](O)(CCN(C)C)c1cccc2ccccc12 [bedaquiline] + CO[C@H]1/C=C/O[C@@]2(C)Oc3c(C)c(O)c4c(O)c(c(/C=N/N5CCN(C)CC5)c(O)c4c3C2=O)NC(=O)/C(C)=C\C=C\[C@H](C)[C@H](O)[C@@H](C)[C@@H](O)[C@@H](C)[C@H](OC(C)=O)[C@@H]1C [rifampicin]
Settings | AUC25, [4] | Einf, [3] | FIC50, [2] | FIC90, [1] | GRinf, [5]
in vitro model: acidic pH 5.7, time point: constant (~7 days, model-specific) | 0.11 | 0.966 | 0.235 | -0.844 | -0.709
in vitro model: acidic pH 5.7, time point: terminal (~4-5 doublings, model-specific) | 0.0796 | 0.995 | 0.0554 | -0.216 | -0.353
in vitro model: intracellular J774, time point: constant = terminal | – | 0.963 | – | 0.648 | -0.255

Settings | AUC25, [4] | Einf, [3] | FIC50, [2] | FIC90, [1] | GRinf, [5]
in vitro model: butyrate, time point: constant (~7 days, model-specific) | 0.112 | 0.958 | 0.393 | 0.174 | -0.181
in vitro model: butyrate, time point: terminal (~4-5 doublings, model-specific) | 0.0949 | 0.988 | 0.398 | 0.429 | -0.18
in vitro model: cholesterol 0.05 mM, time point: constant (~7 days, model-specific) | 0.104 | 0.722 | 0.0154 | – | -0.0966
in vitro model: cholesterol 0.05 mM, time point: terminal (~4-5 doublings, model-specific) | 0.0851 | 0.919 | 0.343 | -0.364 | -0.181
in vitro model: cholesterol-high 0.2 mM, time point: constant (~7 days, model-specific) | 0.0637 | 0.982 | 0.194 | -0.00523 | -0.639
in vitro model: cholesterol-high 0.2 mM, time point: terminal (~4-5 doublings, model-specific) | 0.058 | 1 | 0.318 | 0.223 | -0.64
in vitro model: dormancy (butyrate + nitrate, low O2), time point: constant (~7 days, model-specific) | 0.0984 | 0.921 | 0.234 | 0.896 | 0.149
in vitro model: dormancy (butyrate + nitrate, low O2), time point: terminal (~4-5 doublings, model-specific) | 0.0644 | 0.985 | 0.332 | 0.603 | -0.312
in vitro model: standard 7H9 glycerol, time point: constant = terminal | 0.0718 | 0.93 | 0.22 | 0.326 | -0.0375
in vitro model: valerate, time point: constant (~7 days, model-specific) | 0.0727 | 0.914 | 0.714 | – | -0.108
in vitro model: valerate, time point: terminal (~4-5 doublings, model-specific) | 0.0313 | 0.956 | 0.779 | 0.467 | -0.0734

COc1nc2ccc(Br)cc2cc1[C@@H](c1ccccc1)[C@@](O)(CCN(C)C)c1cccc2ccccc12 [bedaquiline] + CC[C@@H](CO)NCCN[C@@H](CC)CO [ethambutol]
Settings | AUC25, [4] | Einf, [3] | FIC50, [2] | FIC90, [1] | GRinf, [5]
in vitro model: acidic pH 5.7, time point: constant (~7 days, model-specific) | 0.133 | 0.831 | 0.111 | – | -0.514
in vitro model: acidic pH 5.7, time point: terminal (~4-5 doublings, model-specific) | 0.0618 | 0.961 | 0.595 | -0.0708 | -0.42
in vitro model: intracellular J774, time point: constant = terminal | – | 1 | – | -0.00203 | -0.728

Settings | AUC25, [4] | Einf, [3] | FIC50, [2] | FIC90, [1] | GRinf, [5]
in vitro model: butyrate, time point: constant (~7 days, model-specific) | 0.0683 | 0.948 | 0.277 | – | -0.0865
in vitro model: butyrate, time point: terminal (~4-5 doublings, model-specific) | 0.0577 | 0.978 | 0.142 | -0.418 | -0.0993
in vitro model: cholesterol 0.05 mM, time point: constant (~7 days, model-specific) | 0.0646 | 0.736 | 0.507 | – | -0.236
in vitro model: cholesterol 0.05 mM, time point: terminal (~4-5 doublings, model-specific) | 0.0688 | 0.956 | 0.89 | 0.731 | -0.404
in vitro model: cholesterol-high 0.2 mM, time point: constant (~7 days, model-specific) | 0.026 | 0.994 | 0.819 | – | -0.858
in vitro model: cholesterol-high 0.2 mM, time point: terminal (~4-5 doublings, model-specific) | 0.0312 | 1 | 0.85 | 0.757 | -0.687
in vitro model: dormancy (butyrate + nitrate, low O2), time point: constant (~7 days, model-specific) | 0.139 | 0.866 | 1.04 | – | 0.338
in vitro model: dormancy (butyrate + nitrate, low O2), time point: terminal (~4-5 doublings, model-specific) | 0.131 | 0.995 | 0.336 | 1.24 | -0.154
in vitro model: standard 7H9 glycerol, time point: constant = terminal | 0.0591 | 0.949 | 0.176 | -0.108 | -0.0657
in vitro model: valerate, time point: constant (~7 days, model-specific) | 0.108 | 0.953 | 0.0258 | – | -0.286
in vitro model: valerate, time point: terminal (~4-5 doublings, model-specific) | 0.0819 | 0.979 | 0.247 | -0.129 | -0.0998

O=[N+]([O-])c1cn2c(n1)OC[C@@H](OCc1ccc(OC(F)(F)F)cc1)C2 [pretomanid] + CO[C@H]1/C=C/O[C@@]2(C)Oc3c(C)c(O)c4c(O)c(c(/C=N/N5CCN(C)CC5)c(O)c4c3C2=O)NC(=O)/C(C)=C\C=C\[C@H](C)[C@H](O)[C@@H](C)[C@@H](O)[C@@H](C)[C@H](OC(C)=O)[C@@H]1C [rifampicin]
Settings | AUC25, [4] | Einf, [3] | FIC50, [2] | FIC90, [1] | GRinf, [5]
in vitro model: acidic pH 5.7, time point: constant (~7 days, model-specific) | 0.106 | 0.944 | 0.259 | – | -0.224
in vitro model: acidic pH 5.7, time point: terminal (~4-5 doublings, model-specific) | 0.0463 | 0.985 | 0.545 | -0.025 | -0.239
in vitro model: intracellular J774, time point: constant = terminal | – | 0.966 | – | -0.863 | -0.281

Settings | AUC25, [4] | Einf, [3] | FIC50, [2] | FIC90, [1] | GRinf, [5]
in vitro model: butyrate, time point: constant (~7 days, model-specific) | 0.0943 | 0.915 | 0.189 | -0.398 | 0.00239
in vitro model: butyrate, time point: terminal (~4-5 doublings, model-specific) | 0.0817 | 0.966 | -0.0797 | -0.223 | -0.0223
in vitro model: cholesterol 0.05 mM, time point: constant (~7 days, model-specific) | 0.108 | 0.691 | 0.468 | – | -0.0815
in vitro model: cholesterol 0.05 mM, time point: terminal (~4-5 doublings, model-specific) | 0.0829 | 0.905 | 0.242 | -0.715 | -0.0976
in vitro model: cholesterol-high 0.2 mM, time point: constant (~7 days, model-specific) | 0.0743 | 0.902 | 0.509 | 0.733 | -0.211
in vitro model: cholesterol-high 0.2 mM, time point: terminal (~4-5 doublings, model-specific) | 0.0653 | 1 | 0.521 | 0.306 | -0.595
in vitro model: dormancy (butyrate + nitrate, low O2), time point: constant (~7 days, model-specific) | 0.0843 | 0.942 | 0.23 | -0.00861 | 0.0579
in vitro model: dormancy (butyrate + nitrate, low O2), time point: terminal (~4-5 doublings, model-specific) | 0.0526 | 0.986 | 0.0748 | 0.236 | -0.16
in vitro model: standard 7H9 glycerol, time point: constant = terminal | 0.0517 | 0.912 | -0.316 | -1.42 | 0.0474
in vitro model: valerate, time point: constant (~7 days, model-specific) | 0.104 | 0.877 | 0.152 | – | 0.0588
in vitro model: valerate, time point: terminal (~4-5 doublings, model-specific) | 0.0482 | 0.943 | 0.504 | -0.0514 | 0.0666
